The source made the active and inactive calls. The calls are words filed in the database; no cut-off is given here.
System: HaCaT
Assay: Induction of cell migration in human HaCaT cells at 30 uM by in vitro wound healing assay
Type: functional, cell-based

Structure (SMILES)	Activity
CCCN1Cc2cc(OC)ccc2CC(C)C1=O (stereo not drawn)	inactive
COc1ccc2c(c1)CN(Cc1ccccc1)C(=O)C(C)C2 (stereo not drawn)	inactive
COc1ccc2c(c1)CNC(=O)C(C)C2 (stereo not drawn)	Active
CCN1Cc2cc(OC)ccc2CC(C)C1=O (stereo not drawn)	Active
CCCCN1Cc2cc(OC)ccc2CC(C)C1=O (stereo not drawn)	inactive
COc1ccc2c(c1)CN(C)C(=O)C(C)C2 (stereo not drawn)	Active
CCCCCN1Cc2cc(OC)ccc2CC(C)C1=O (stereo not drawn)	inactive
COc1ccc2c(c1)CN(C(C)C)C(=O)C(C)C2 (stereo not drawn)	inactive

Source: ChEMBL document CHEMBL1781891, “An efficient preparation of N-alkyl-2-benzazepine derivatives and investigation of their biological activity” (Bioorg Med Chem Lett, 2009)
